Measurements from patent US20030232102A1, “Total glycosides of paeony, method to prepare the same and uses thereof” (priority 2001, published 2003).

System: patients with rheumatoid arthritis
Assay: Phase II clinical study in rheumatoid arthritis: effectiveness (symptoms, physical examination, comprehensive evaluation)
Type: in vivo, human
Parameters: ESR Reduced to norm., % of cases / CRP Reduced to Norm., % of cases / RF Reduced to norm., % of cases: concentration or dose not given beside the values
Method: It was a multiple-centered, randomized, parallel, positive controlled Phrase II clinical study.
All clinical studies except the above mentioned 120 cases were conducted in a single-blind condition.
1) Age 18˜65, male or female who agreed to the investigational treatment for 12 weeks to 6 months. History of rheumatoid arthritis was within 3 years.
2) Documented Rheumatoid Arthritis based on a diagnostic criteria of 1987 Revised ARA Criteria for the Classification of Rheumatoid Arthritis
3) Diagnosis of a typical active stage of RA: A patient is said to be on an active stage of RA if he or she has satisfied at least 4 of the following 5 items.
2) Patient who quitted the treatment for the ineffectiveness 7 days after the start of administration was included in the efficacy analysis. Patient who quitted the treatment for the side effects was not included in the efficacy analysis but the safety analyses.
1) The placebo run-in period: Seven days before administration, the selected patients stopped using NSAIDs and took a placebo instead.
4) For the double-blinded study, patients in both groups would be given capsules and tablets in same shapes, odors and amount. Placebo of capsule or tablet were included. Neither doctors nor patients can tell the group of treatment from the other.
5) No analgesics, anti-inflammation drugs, immune regulatory agents or muscle relaxants were allowed during the period of study. Acetaminophen could be used when necessary. If a physical therapy was started before enrollment, it was allowed to be continued, yet, it should be taken all the way during the period of clinical study.
1) Pain at rest: patients were asked to scale the degree of pain with a ruler [drawing 1]
2) Morning stiffness: Patients were requested to make notes on duration of their morning joint stiffness, a time span from its appearance to recovery in minutes every morning. The doctors should evaluate their record sheets by questioning them. For example “Do you fell stiff in any of your joints? (today, these 2 days)” When get a “yes” in answer, then “when did you get up today?” and “when does the stiffness be gone?”
3) Swelling of joints: Take count of the index of joint swelling by summing up the degree number of each joint.
0=normal; 1=swelling soft tissues (synovium) without hydrarthrus; 2=swelling soft tissues (synovium) with hydrarthrus.
4) Tenderness of joints: Take count of the index of joint tenderness by summing up the degree number of each joint:
5) Grip strength: Fold the arm belt of a sphygmomanometer twice and seal it in a small cloth bag suitable for a hand to hold. Aerates the belt in pressure of 20 mm Hg. Patients were asked to grip the bag with their not braced left and right hand, the grip strength is the average pressures in mm Hg for three times.
6) Time consumed for a 15 meters' walk (Seconds): Time started from a calm standing to the final of 15 meters. The average of three times.
7) General joint function (criteria of ARA):
8) Self-scoring and physician's grading on disease conditions: Both patients and doctors were required to submit their score sheet every time on follow-up survey. The scoring was made upon following criteria:
9) Patient's general condition: condition on the physical strength, sleep and appetite.
No effect: less than 30% improvement in symptoms and physical signs.
Improved: About 50% improvement in symptoms and physical signs (including general conditions in physical strength, sleep and appetite).

CN(Cc1cnc2nc(N)nc(N)c2n1)c1ccc(C(=O)N[C@@H](CCC(=O)O)C(=O)O)cc1 [MTX, Methotrexate]
MR Disappeared, cases (double blinded, 12 weeks): 15 | NSJ 50% reduced, % of cases (double blinded, 12 weeks): 56.7% | NSJ 50% reduced, cases (double blinded, 12 weeks): 34 | NSJ Disappeared, % of cases (double blinded, 12 weeks): 26.7% | NSJ Disappeared, cases (double blinded, 12 weeks): 16 | RF 2 dilutions lower, % of cases (double blinded, 12 weeks): 36.7% | RF 2 dilutions lower, cases (double blinded, 12 weeks): 22 | RF Reduced to norm., cases (double blinded, 12 weeks): 0 | AGS 50% increased, % of cases (overall group, 4 weeks): 7.5% | AGS 50% increased, cases (overall group, 4 weeks): 19 | CRP 50% reduced, % of cases (overall group, 4 weeks): 13.4% | CRP 50% reduced, cases (overall group, 4 weeks): 19 | CRP Reduced to Norm., % of cases (overall group, 4 weeks): 4.9% | CRP Reduced to Norm., cases (overall group, 4 weeks): 7 | ESR 50% reduced, % of cases (overall group, 4 weeks): 41.6% | ESR 50% reduced, cases (overall group, 4 weeks): 59 | ESR Reduced to norm., % of cases (overall group, 4 weeks): 15.5% | ESR Reduced to norm., cases (overall group, 4 weeks): 22 | ITJ 50% reduced, % of cases (overall group, 4 weeks): 19.0% | ITJ 50% reduced, cases (overall group, 4 weeks): 27 | ITJ Disappeared, % of cases (overall group, 4 weeks): 2.8% | ITJ Disappeared, cases (overall group, 4 weeks): 4 | MR 50% reduced, % of cases (overall group, 4 weeks): 45.8% | MR 50% reduced, cases (overall group, 4 weeks): 65 | MR Disappeared, % of cases (overall group, 4 weeks): 9.8% | MR Disappeared, cases (overall group, 4 weeks): 14 | NSJ 50% reduced, % of cases (overall group, 4 weeks): 48.6% | NSJ 50% reduced, cases (overall group, 4 weeks): 69 | NSJ Disappeared, % of cases (overall group, 4 weeks): 10.6% | NSJ Disappeared, cases (overall group, 4 weeks): 15 | RF 2 dilutions lower, % of cases (overall group, 4 weeks): 49.3% | RF 2 dilutions lower, cases (overall group, 4 weeks): 70 | RF Reduced to norm., % of cases (overall group, 4 weeks): 4.9% | RF Reduced to norm., cases (overall group, 4 weeks): 7 | AGS 50% increased, % of cases (overall group, 8 weeks): 16.7% | AGS 50% increased, cases (overall group, 8 weeks): 23 | CRP 50% reduced, % of cases (overall group, 8 weeks): 17.6% | CRP 50% reduced, cases (overall group, 8 weeks): 25 | CRP Reduced to Norm., % of cases (overall group, 8 weeks): 12.7% | CRP Reduced to Norm., cases (overall group, 8 weeks): 18 | ESR 50% reduced, cases (overall group, 8 weeks): 80 | ESR Reduced to norm., % of cases (overall group, 8 weeks): 18.3% | ESR Reduced to norm., cases (overall group, 8 weeks): 26 | ITJ 50% reduced, % of cases (overall group, 8 weeks): 34.5% | ITJ 50% reduced, cases (overall group, 8 weeks): 49 | ITJ Disappeared, % of cases (overall group, 8 weeks): 3.5% | ITJ Disappeared, cases (overall group, 8 weeks): 5 | MR 50% reduced, % of cases (overall group, 8 weeks): 52.1% | MR 50% reduced, cases (overall group, 8 weeks): 74 | MR Disappeared, % of cases (overall group, 8 weeks): 19.7% | MR Disappeared, cases (overall group, 8 weeks): 28 | NSJ 50% reduced, % of cases (overall group, 8 weeks): 51.4% | NSJ 50% reduced, cases (overall group, 8 weeks): 73 | NSJ Disappeared, % of cases (overall group, 8 weeks): 16.9% | NSJ Disappeared, cases (overall group, 8 weeks): 24 | RF 2 dilutions lower, % of cases (overall group, 8 weeks): 59.9% | RF 2 dilutions lower, cases (overall group, 8 weeks): 85 | RF Reduced to norm., % of cases (overall group, 8 weeks): 9.2% | RF Reduced to norm., cases (overall group, 8 weeks): 13 | AGS 50% increased, % of cases (overall group, 12 weeks): 29.5% | AGS 50% increased, cases (overall group, 12 weeks): 42 | CRP 50% reduced, % of cases (overall group, 12 weeks): 23.2% | CRP 50% reduced, cases (overall group, 12 weeks): 33 | CRP Reduced to Norm., % of cases (overall group, 12 weeks): 17.6% | CRP Reduced to Norm., cases (overall group, 12 weeks): 25 | ESR 50% reduced, cases (overall group, 12 weeks): 76 | ESR Reduced to norm., % of cases (overall group, 12 weeks): 21.8% | ESR Reduced to norm., cases (overall group, 12 weeks): 31 | ITJ 50% reduced, % of cases (overall group, 12 weeks): 50.7% | ITJ 50% reduced, cases (overall group, 12 weeks): 72 | ITJ Disappeared, % of cases (overall group, 12 weeks): 6.3% | ITJ Disappeared, cases (overall group, 12 weeks): 9 | MR 50% reduced, % of cases (overall group, 12 weeks): 67.6% | MR 50% reduced, cases (overall group, 12 weeks): 96 | MR Disappeared, % of cases (overall group, 12 weeks): 11.3% | MR Disappeared, cases (overall group, 12 weeks): 34 | NSJ 50% reduced, % of cases (overall group, 12 weeks): 61.3% | NSJ 50% reduced, cases (overall group, 12 weeks): 87 | NSJ Disappeared, % of cases (overall group, 12 weeks): 19.0% | NSJ Disappeared, cases (overall group, 12 weeks): 27 | RF 2 dilutions lower, % of cases (overall group, 12 weeks): 59.9% | RF 2 dilutions lower, cases (overall group, 12 weeks): 85 | RF Reduced to norm., % of cases (overall group, 12 weeks): 11.3% | RF Reduced to norm., cases (overall group, 12 weeks): 16 | AGS 50% increased, % of cases (overall group, 24 weeks): 16.7% | AGS 50% increased, cases (overall group, 24 weeks): 10 | CRP 50% reduced, % of cases (overall group, 24 weeks): 18.3% | CRP 50% reduced, cases (overall group, 24 weeks): 11 | CRP Reduced to Norm., % of cases (overall group, 24 weeks): 40.0% | CRP Reduced to Norm., cases (overall group, 24 weeks): 24 | ESR 50% reduced, % of cases (overall group, 24 weeks): 23.3% | ESR 50% reduced, cases (overall group, 24 weeks): 14 | ESR Reduced to norm., % of cases (overall group, 24 weeks): 43.3% | ESR Reduced to norm., cases (overall group, 24 weeks): 26 | ITJ 50% reduced, % of cases (overall group, 24 weeks): 58.3% | ITJ 50% reduced, cases (overall group, 24 weeks): 35 | ITJ Disappeared, % of cases (overall group, 24 weeks): 10.0% | ITJ Disappeared, cases (overall group, 24 weeks): 6 | MR 50% reduced, % of cases (overall group, 24 weeks): 50.0% | MR 50% reduced, cases (overall group, 24 weeks): 30 | MR Disappeared, % of cases (overall group, 24 weeks): 31.7% | MR Disappeared, cases (overall group, 24 weeks): 19 | NSJ 50% reduced, % of cases (overall group, 24 weeks): 46.7% | NSJ 50% reduced, cases (overall group, 24 weeks): 28 | NSJ Disappeared, % of cases (overall group, 24 weeks): 26.7% | NSJ Disappeared, cases (overall group, 24 weeks): 16 | RF 2 dilutions lower, % of cases (overall group, 24 weeks): 38.3% | RF 2 dilutions lower, cases (overall group, 24 weeks): 23 | RF Reduced to norm., % of cases (overall group, 24 weeks): 10.0% | RF Reduced to norm., cases (overall group, 24 weeks): 6 | Changes in RA perimeters: GS-L (overall groups, 4 weeks, mean): 12.56 | Changes in RA perimeters: GS-R (overall groups, 4 weeks, mean): 11.60 | Changes in RA perimeters: ISJ (overall groups, 4 weeks, mean): 3.73 | Changes in RA perimeters: ITJ (overall groups, 4 weeks, mean): 6.04 | Changes in RA perimeters: MR (overall groups, 4 weeks, mean): 35.76 | Changes in RA perimeters: NSJ (overall groups, 4 weeks, mean): 2.10 | Changes in RA perimeters: NTJ (overall groups, 4 weeks, mean): 2.61 | Changes in RA perimeters: PR (overall groups, 4 weeks, mean): 1.05 | Changes in RA perimeters: GS-L (overall groups, 8 weeks, mean): 16.66 | Changes in RA perimeters: GS-R (overall groups, 8 weeks, mean): 19.36 | Changes in RA perimeters: ITJ (overall groups, 8 weeks, mean): 12.66 | Changes in RA perimeters: MR (overall groups, 8 weeks, mean): 54.20 | Changes in RA perimeters: NSJ (overall groups, 8 weeks, mean): 4.43 | Changes in RA perimeters: NTJ (overall groups, 8 weeks, mean): 5.38 | Changes in RA perimeters: PR (overall groups, 8 weeks, mean): 1.94 | Changes in RA perimeters: TSJ (overall groups, 8 weeks, mean): 6.59 | Changes in RA perimeters: GS-L (overall groups, 12 weeks, mean): 23.06 | Changes in RA perimeters: GS-R (overall groups, 12 weeks, mean): 28.10 | Changes in RA perimeters: ISJ (overall groups, 12 weeks, mean): 10.25 | Changes in RA perimeters: ITJ (overall groups, 12 weeks, mean): 18.77 | Changes in RA perimeters: MR (overall groups, 12 weeks, mean): 78.52 | Changes in RA perimeters: NSJ (overall groups, 12 weeks, mean): 6.77 | Changes in RA perimeters: NTJ (overall groups, 12 weeks, mean): 8.78 | Changes in RA perimeters: GS-L (overall groups, 24 weeks, mean): 31.83 | Changes in RA perimeters: GS-R (overall groups, 24 weeks, mean): 30.90 | Changes in RA perimeters: ISJ (overall groups, 24 weeks, mean): 6.88 | Changes in RA perimeters: ITJ (overall groups, 24 weeks, mean): 13.94 | Changes in RA perimeters: MR (overall groups, 24 weeks, mean): 60.70 | Changes in RA perimeters: NSJ (overall groups, 24 weeks, mean): 5.39 | Changes in RA perimeters: NTJ (overall groups, 24 weeks, mean): 9.05 | Changes in RA perimeters: PR (overall groups, 24 weeks, mean): 2.62
